One data set has as its system HBV. As to the kind of experiment: HepAD38 anti-HBV assay: reduction of viral product accumulation (virion DNA qPCR, HBsAg/HBeAg ELISA). Particulars: Hepatitis B virus, 120 h; HepAD38 cells; concentration reducing viral product accumulation by 50% relative to no drug controls; harvest five days after compound addition; read-out: HepAD38 EC50. It is filed as cell-based. An outline of the steps:
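EC50 values reflect 50% reduction, relative to untreated controls, in virion DNA (qPCR) or HBsAg/HBeAg (ELISA) from lysates or supernatants. Washed HepAD38 cells without tetracycline were exposed to compound for 5 days. In the 8-day variant, medium and compound were renewed on days 2 and 5.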

The nature of data set [1]: Compound toxicity, ATPLite total ATP levels. The class given is cell-based. Particulars: human, HepG2 cells; concentration reducing total ATP levels by 50% relative to no drug controls; ATPLite three days after compound addition. The procedure:
Compound toxicity is evaluated by seeding cells at 15,000 cells/well and treating with compound as described above.

For `CS(=O)(=O)Nc1ccc(S(=O)(=O)N[C@H]2CC3=C(c4ccn(C(F)F)n4)[C@H](c4ccc(F)cc4Cl)N=C(c4nccs4)N3C2)cc1` [Example 357], the EC50 in the data set with HBV is below 0.1 µM. This molecule also registered a CC50 at 3 days in data set [1] above 25 µM.

Turning to `O=S(=O)(N[C@H]1CC2=C(c3ccn(C(F)F)n3)[C@H](c3ccc(F)cc3Cl)N=C(c3nccs3)N2C1)N1CCCCC1` [Example 73], in the data set with HBV, the EC50 is below 0.1 µM. Further, the CC50 at 3 days in data set [1] was in the range of 10 to 25 µM.

In the case of `O=C(N[C@H]1CC2=C(c3ccn(C(F)F)n3)[C@H](c3ccc(F)cc3Cl)N=C(c3nccs3)N2C1)c1ccccc1` [Example 213], the EC50 in the data set with HBV was below 0.1 µM. The CC50 at 3 days in data set [1] fell in the range of 10 to 25 µM.

Regarding `O=S(=O)(N[C@H]1CC2=C(c3ccn(C(F)F)n3)[C@H](c3ccc(F)cc3Cl)N=C(c3nccs3)N2C1)N1CCC(O)(c2ccccn2)CC1` [Example 266], in the data set on HBV, the EC50 was below 0.1 µM. This molecule also returned a CC50 at 3 days in data set [1] above 25 µM.

Turning to `Cn1ccc(S(=O)(=O)N[C@H]2CC3=C(c4ccn(C(F)F)n4)[C@H](c4ccc(F)cc4Cl)N=C(c4nccs4)N3C2)n1` [Example 394], the EC50 in the data set on HBV was below 0.1 µM. In data set [1], this molecule returned a CC50 at 3 days above 25 µM.

On to `O=S(=O)(N[C@H]1CC2=C(c3ccn(C(F)F)n3)[C@H](c3ccc(F)cc3Cl)N=C(c3nccs3)N2C1)c1cn[nH]c1` [Example 20], for which the EC50 in the data set with HBV was below 0.1 µM. Further, in data set [1], the CC50 at 3 days is above 25 µM.

Consider `O=S(=O)(N[C@H]1CC2=C(c3ccn(C(F)F)n3)[C@H](c3ccc(F)cc3Cl)N=C(c3nccs3)N2C1)c1ccccc1` [Example 367], for which, in the data set with HBV, the EC50 was below 0.1 µM. The same molecule registered a CC50 at 3 days in data set [1] above 25 µM.

In the case of `CS(=O)(=O)C1CN(S(=O)(=O)N[C@H]2CC3=C(c4ccn(C(F)F)n4)[C@H](c4ccc(F)cc4Cl)N=C(c4nccs4)N3C2)C1` [Example 337], the EC50 in the data set on HBV was below 0.1 µM. For the same molecule, the CC50 at 3 days in data set [1] is above 25 µM.

For the molecule `O=S(=O)(N[C@H]1CC2=C(c3ccn(C(F)F)n3)[C@H](c3ccc(F)cc3Cl)N=C(c3nccs3)N2C1)c1ccc(-c2cccnc2)cn1` [Example 403], the EC50 in the data set on HBV was below 0.1 µM. For the same molecule, in data set [1], the CC50 at 3 days was above 25 µM.

With `C[C@]1(O)CC[C@H](c2ccc(S(=O)(=O)N[C@H]3CC4=C(c5ccn(C(F)F)n5)[C@H](c5ccc(F)cc5Cl)N=C(c5nccs5)N4C3)cc2)CC1` [Example 411], the EC50 with HBV is below 0.1 µM. The same molecule showed a CC50 at 3 days in data set [1] of 10 to 25 µM.

For the molecule `O=C(O)[C@H]1CC[C@H](c2ccc(S(=O)(=O)N[C@H]3CC4=C(c5ccn(C(F)F)n5)[C@H](c5ccc(F)cc5Cl)N=C(c5nccs5)N4C3)cc2)CC1` [Example 426], in the data set on HBV, the EC50 was below 0.1 µM. In data set [1], this molecule showed a CC50 at 3 days above 25 µM.

With `O=S(=O)(N[C@H]1CC2=C(c3ccn(C(F)F)n3)[C@H](c3ccc(F)cc3Cl)N=C(c3nccs3)N2C1)c1ccc(S(=O)(=O)C(F)F)cc1` [Example 340], the EC50 in the data set with HBV is below 0.1 µM. Besides, in data set [1], the CC50 at 3 days was above 25 µM.

As for `N#CCCCS(=O)(=O)N[C@H]1CC2=C(c3ccn(C(F)F)n3)[C@H](c3ccc(F)cc3Cl)N=C(c3nccs3)N2C1` [Example 135], in the data set on HBV, the EC50 was below 0.1 µM. The CC50 at 3 days in data set [1] is above 25 µM.

As to `O=S(=O)(N[C@H]1CC2=C(c3ccn(C(F)F)n3)[C@H](c3ccc(F)cc3Cl)N=C(c3nccs3)N2C1)N1CCC[C@H](O)C1` [Example 93], the EC50 in the data set with HBV was below 0.1 µM. Further, the CC50 at 3 days in data set [1] is above 25 µM.

`O=S(=O)(N[C@H]1CC2=C(c3ccn(C(F)F)n3)[C@H](c3ccc(F)cc3Cl)N=C(c3nccs3)N2C1)c1ccc(F)cc1F` [Example 388]: the EC50 in the data set with HBV is below 0.1 µM. In data set [1], this molecule gave a CC50 at 3 days above 25 µM.

With `Nc1cccc(S(=O)(=O)N[C@H]2CC3=C(c4ccn(C(F)F)n4)[C@H](c4ccc(F)cc4Cl)N=C(c4nccs4)N3C2)n1` [Example 383], the EC50 in the data set on HBV is below 0.1 µM. Moreover, the CC50 at 3 days in data set [1] is above 25 µM.

Regarding `O=S(=O)(N[C@H]1CC2=C(c3ccn(C(F)F)n3)[C@H](c3ccc(F)cc3Cl)N=C(c3nccs3)N2C1)C1CCC1` [Example 324], the concentration giving a half-maximal response (EC50) with HBV was below 0.1 µM. Besides, the CC50 at 3 days in data set [1] is 10 to 25 µM.

`O=S(=O)(N[C@H]1CC2=C(c3ccn(C(F)F)n3)[C@H](c3ccc(F)cc3Cl)N=C(c3nccs3)N2C1)N1CCC(O)(c2nccs2)CC1` [Example 260]: the EC50 in the data set on HBV was below 0.1 µM. In data set [1], this molecule registered a CC50 at 3 days above 25 µM.

As for `O=S(=O)(N[C@H]1CC2=C(c3ccn(C(F)F)n3)[C@H](c3ccc(F)cc3Cl)N=C(c3nccs3)N2C1)c1ccccc1F` [Example 387], in the data set with HBV, the EC50 was below 0.1 µM. Further, the CC50 at 3 days in data set [1] was above 25 µM.

Turning to `CCOC(=O)CC1(S(=O)(=O)N[C@H]2CC3=C(c4ccn(C(F)F)n4)[C@H](c4ccc(F)cc4Cl)N=C(c4nccs4)N3C2)CC1` [Example 369], the EC50 in the data set on HBV was below 0.1 µM. In addition, the CC50 at 3 days in data set [1] was above 25 µM.

As for `O=S(=O)(N[C@H]1CC2=C(c3ccn(C(F)F)n3)[C@H](c3ccc(F)cc3Cl)N=C(c3nccs3)N2C1)c1ccc([C@H]2CC[C@](O)(c3ccccn3)CC2)cc1` [Example 385], the EC50 in the data set with HBV is below 0.1 µM. Moreover, in data set [1], the CC50 at 3 days was above 25 µM.

Regarding `O=Cc1ccc(S(=O)(=O)N[C@H]2CC3=C(c4ccn(C(F)F)n4)[C@H](c4ccc(F)cc4Cl)N=C(c4nccs4)N3C2)cc1` [Example 332], the EC50 with HBV is below 0.1 µM. The CC50 at 3 days in data set [1] is above 25 µM.

As for `CC(C)(O)[C@@H]1CCCN1S(=O)(=O)N[C@H]1CC2=C(c3ccn(C(F)F)n3)[C@H](c3ccc(F)cc3Cl)N=C(c3nccs3)N2C1` [Example 289], the EC50 in the data set on HBV is below 0.1 µM. In data set [1], this molecule had a CC50 at 3 days above 25 µM.

With `O=C1CCC(S(=O)(=O)N[C@H]2CC3=C(c4ccn(C(F)F)n4)[C@H](c4ccc(F)cc4Cl)N=C(c4nccs4)N3C2)CC1` [Example 97], the EC50 in the data set with HBV is below 0.1 µM. Moreover, the CC50 at 3 days in data set [1] was above 25 µM.

Turning to `O=S(=O)(N[C@H]1CC2=C(c3ccn(C(F)F)n3)[C@H](c3ccc(F)cc3Cl)N=C(c3nccs3)N2C1)[C@H]1CC[C@H](O)CC1` [Example 98], the EC50 in the data set on HBV is below 0.1 µM. Besides, the CC50 at 3 days in data set [1] was above 25 µM.

Regarding `C[C@]1(NS(=O)(=O)C2CCC(O)(c3ccccn3)CC2)CC2=C(c3ccn(C(F)F)n3)[C@H](c3ccc(F)cc3Cl)N=C(c3nccs3)N2C1` (stereo partly shown) [Example 363], the EC50 with HBV is below 0.1 µM. In addition, the CC50 at 3 days in data set [1] is 10 to 25 µM.

`O=S(=O)(N[C@H]1CC2=C(c3ccn(C(F)F)n3)[C@H](c3ccc(F)cc3Cl)N=C(c3nccs3)N2C1)N1CCC[C@@H]1C(F)(F)F` [Example 287]: in the data set on HBV, the EC50 was below 0.1 µM. The molecule also returned a CC50 at 3 days in data set [1] of 10 to 25 µM.

For the molecule `O=S(=O)(N[C@H]1CC2=C(c3ccn(C(F)F)n3)[C@H](c3ccc(F)cc3Cl)N=C(c3nccs3)N2C1)N1CCC[C@@H](O)C1` [Example 94], the EC50 in the data set with HBV was below 0.1 µM. Moreover, in data set [1], the CC50 at 3 days is above 25 µM.

In the case of `O=S(=O)(N[C@H]1CC2=C(c3ccn(C(F)F)n3)[C@H](c3ccc(F)cc3Cl)N=C(c3nccs3)N2C1)N1CCC(O)(c2ccncc2)CC1` [Example 259], the EC50 in the data set with HBV is below 0.1 µM. This molecule also displayed a CC50 at 3 days in data set [1] above 25 µM.

With `O=S(=O)(N[C@H]1CC2=C(c3ccn(C(F)F)n3)[C@H](c3ccc(F)cc3Cl)N=C(c3nccs3)N2C1)N1CCOCC1` [Example 74], the 50% effective concentration (EC50) with HBV was below 0.1 µM. In data set [1], this molecule had a CC50 at 3 days above 25 µM.

Regarding `O=S(=O)(N[C@H]1CC2=C(c3ccn(C(F)F)n3)[C@H](c3ccc(F)cc3Cl)N=C(c3nccs3)N2C1)c1ccc(Br)cn1` [Example 368], in the data set on HBV, the EC50 is below 0.1 µM. This molecule gave a CC50 at 3 days in data set [1] above 25 µM.

Consider `O=S(=O)(N[C@H]1CC2=C(c3ccn(C(F)F)n3)[C@H](c3ccc(F)cc3Cl)N=C(c3nccs3)N2C1)c1cnn(S(=O)(=O)c2cn[nH]c2)c1` [Example 21], for which, in the data set with HBV, the EC50 is below 0.1 µM. Besides, in data set [1], the CC50 at 3 days lay within 10 to 25 µM.

As to `O=S(=O)(N[C@H]1CC2=C(c3ccn(C(F)F)n3)[C@H](c3ccc(F)cc3Cl)N=C(c3nccs3)N2C1)N1CC[C@H](O)C1` [Example 91], the EC50 with HBV was below 0.1 µM. Moreover, the CC50 at 3 days in data set [1] is above 25 µM.

`O=S(=O)(N[C@H]1CC2=C(c3ccn(C(F)F)n3)[C@H](c3ccc(F)cc3Cl)N=C(c3nccs3)N2C1)c1ccccn1` [Example 364]: the EC50 with HBV is below 0.1 µM. For the same molecule, the CC50 at 3 days in data set [1] is above 25 µM.

For the molecule `O=S(=O)(N[C@H]1CC2=C(c3ccn(C(F)F)n3)[C@H](c3ccc(F)cc3Cl)N=C(c3nccs3)N2C1)N1CCC(O)(c2ccccc2)CC1` [Example 257], in the data set with HBV, the EC50 was below 0.1 µM. In data set [1], this molecule yielded a CC50 at 3 days of 10 to 25 µM.

Turning to `O=S(=O)(N[C@H]1CC2=C(c3ccn(C(F)F)n3)[C@H](c3ccc(F)cc3Cl)N=C(c3nccs3)N2C1)[C@H]1C[C@H](O)C1` [Example 370], the EC50 in the data set with HBV was below 0.1 µM. In data set [1], this molecule gave a CC50 at 3 days above 25 µM.

In the case of `O=S(=O)(N[C@H]1CC2=C(c3ccn(C(F)F)n3)[C@H](c3ccc(F)cc3Cl)N=C(c3nccs3)N2C1)N1CC(O)C1` [Example 95], the EC50 with HBV was below 0.1 µM. In data set [1], the CC50 at 3 days was above 25 µM.

In the case of `O=S(=O)(N[C@H]1CC2=C(c3ccn(C(F)F)n3)[C@H](c3ccc(F)cc3Cl)N=C(c3nccs3)N2C1)C1(c2ccccn2)CC1` [Example 377], the EC50 in the data set with HBV was below 0.1 µM. In addition, the half-maximal cytotoxic concentration (CC50) at 3 days in data set [1] was above 25 µM.

Turning to `O=S(=O)(N[C@H]1CC2=C(c3ccn(C(F)F)n3)[C@H](c3ccc(F)cc3Cl)N=C(c3nccs3)N2C1)[C@H]1C[C@](O)(c2ccccn2)C1` [Example 371], in the data set on HBV, the EC50 was below 0.1 µM. The molecule also gave a CC50 at 3 days in data set [1] of 10 to 25 µM.

Take `O=C1NC[C@@H](CNC(=O)c2cccc(S(=O)(=O)N[C@H]3CC4=C(c5ccn(C(F)F)n5)[C@H](c5ccc(F)cc5Cl)N=C(c5nccs5)N4C3)c2)O1` [Example 420]: the EC50 with HBV was below 0.1 µM. The molecule further returned a CC50 at 3 days in data set [1] above 25 µM.

On to `COCCNS(=O)(=O)N[C@H]1CC2=C(c3ccn(C(F)F)n3)[C@H](c3ccc(F)cc3Cl)N=C(c3nccs3)N2C1` [Example 80], for which the EC50 in the data set with HBV is below 0.1 µM. Moreover, in data set [1], the CC50 at 3 days was above 25 µM.

The values are drawn from patent US11472808B2, “Substituted pyrrolo[1,2-c]pyrimidines as hepatitis B antiviral agents” (Enanta Pharmaceuticals, Inc., priority 2019, dated 2022).
